# What was measured:
# Format in all cases: cell-based
# [1] = test system: recombinant retrovirus of murine origin (MoMLV); test: Residual virus (clones of βgal+ cells) after infection of mouse 3T3 test cells with LacZ recombinant MoMLV retrovirus; settings: 3T3 cells; for residual virus (% not inhibited) at 100 µM / residual virus (% not inhibited) at 10 µM / residual virus (% not inhibited) at 1 µM / residual virus (% not inhibited) at 0.1 µM: NIH3T3, 48 hours after infection, mean of several experiments, read-out: % of the residual virus (not inhibited by the product); for residual virus (% not inhibited) at 100 µM: 10^-4 M; for residual virus (% not inhibited) at 10 µM: 10^-5 M; for residual virus (% not inhibited) at 1 µM: 10^-6 M; for residual virus (% not inhibited) at 0.1 µM: 10^-7 M
# Protocol: The virus used is a recombinant retrovirus of murine origin (MoMLV) in which a reporter gene (LacZ) has been introduced.
# Fixed amounts of LacZ recombinant retroviruses are placed in the presence of mouse infectable test cells (3T3) with or without the product to be tested. To each recombinant retrovirus corresponds a clone of β gal^+ cells. The number of clones of βgal^+ cells is read 48 hours after the infection. The % of the residual virus (not inhibited by the product) is indicated in the following table (mean of several independent experiments): […]
# HIV-1 virus [2] = test: Replication of HIV-1 in macrophages of sero-negative donors, continuous culture (reverse transcriptase activity)
# Protocol: (§1) The drugs 6651, AZT, 6714 and ddT were diluted in DMSO.
# (§2) The virus HIV-1 utilized is derived from a culture supernatant of CEM-LAV 1 cells; these latter are maintained by the addition at each passage (every 3 or 4 days) of uninfected CEM cells. The titre of the virus in the clarified culture supernatant is higher than 10^6 cpm/ml in reverse transcriptase activity and 10^3 infectious units/ml on lymphocytes of sero-negative donors.
# (§3) The macrophages were obtained from a deleucocytation pocket. The mononucleated cells were separated on a Ficoll^R gradient. The cells were adjusted to 50.10^6 cells/ml in the RPMI 1640 medium (MBA) containing 20% fetal calf serum (Flow), 10 mM Hepes (Sigma), 1% of PSN and 1% of glutamine (Gibco). After 1 h of incubation at 4° C. with gentle shaking, the macrophages agglutinate among themselves. The agglutinated macrophages are sedimented for 15 mn at 4° C. The supernatant containing an enrichment in lymphocytes was removed and the pellet enriched in macrophages was diluted to 5.10^6 cells/ml in the medium previously described. The cell suspension was then placed in Petri dishes of 60 mm diameter and placed at 37° C. for 1 h 30. The unattached cells are removed and the washed cell carpet was then detached with a scraper. The cells thus recovered were used directly for the study.
# (§4) For this study, the production of HIV-1 virus by infected macrophages in the presence or absence of the drugs 6714 or ddT and 6651 or AZT were monitored either in continuous culture for at least 30 days or after lysis of the macrophages at day +14 and infection of lymphocytes by this lysate.
# For each test, 15.10^6 cells were or were not infected with the HIV-1 virus (6000 cpm/10^6 cells). After 1 h of absorption at 37° C., the cells were placed in 6-wells Costar plates and 5.10^-5 M or 10^-5 M of the drugs 6714 and ddT and 10^-5 M, 10^-6 M or 10^-7 M of the drugs 6651 and AZT were added to the culture medium. The medium was changed every 3 or 4 days and the reverse transcriptase activity was determined in the culture supernatant. The drugs were added at each passage to the culture medium at the respective concentrations indicated above.
# (§5) 3) Measurement of the reverse transcriptase activity
# (§6) The reverse transcriptase activity is assayed starting from 1 ml of culture supernatant concentrated 100 times by ultra-centrifugation for 5 mn at 95.000 rpm (Rotor TL 100^R Beckman).
# (§7) The pellet is resuspended in 10 μl of NTE Triton^R ×100 0.1%.
# (§8) After 1 h at 37° C., the acid-insoluble products are precipitated by 20% trichloroacetic acid, filtered onto 0.45μ Millipore^R and the B radioactivity is measured with the aid of a Kontron scintillation counter.
# HIV-1 virus [3] = test: Infection of activated lymphocytes by the lysates of infected macrophages (co-culture, reverse transcriptase activity)
# Protocol: as §1, §2
# The lymphocytes were isolated from the peripheral blood of sero-negative donors on a Ficoll^R gradient (MSL, Eurobio). The lymphocytes thus obtained were stimulated with the phytohemaglutinin p(PHA-p) for 3 days before their utilization.
# The lymphocytes are cultivated in RPMI 1640 medium, supplemented with 10% of fetal calf serum, 10% of interleukin 2, 2 μg/ml of polybrene, 1% of glutamine, 1% of antibiotics.
# as §3, §4
# The quantity of cells placed in culture and the conditions of infection are identical with those previously described.
# At day 14 after infection, the macrophages were lysed by two successive freezings to -20° C. and thawings at 37° C. The lysate recovered was then utilized as inoculum to infect 3.10^6 activated lymphocytes derived from a sero-negative donor. After 1 h of absorption, the lymphocytes were adjusted to 10^6 cells per ml and the drugs were added at the concentrations corresponding to those of the lysate.
# The lymphocytes were subcultured every 3 or 4 days and an assay of the reverse transcriptase was carried out starting from the culture supernatant at each passage.
# as §5, §6, §7, §8
SMILES,residual virus (% not inhibited) at 100 µM [1] [%],residual virus (% not inhibited) at 10 µM [1] [%],residual virus (% not inhibited) at 1 µM [1] [%],residual virus (% not inhibited) at 0.1 µM [1] [%],retroviral activity (in words) ([1]; recombinant MoMLV),"proliferation of the HIV-1 virus in the macrophages (HIV-1 virus [2]; 10^-5 M, 10^-6 M and 10^-7 M)","viral production on the lymphocytes with the lysates of treated macrophages (HIV-1 virus [3]; 10^-5 M, 10^-6 M and 10^-7 M (FIG. 4d))","multiplication of the HIV-1 virus at the interior of the macrophage (HIV-1 virus [3]; whatever the concentration tested, 10^-5 M, 10^-6 M and 10^-7 M)",proliferation of the HIV-1 virus in the macrophages (HIV-1 virus [2]; 5.10^-5 M and 10^-5 M),viral production by activated lymphocytes (HIV-1 virus [3]; 5.10^-5 M),"viral production by activated lymphocytes, compared to untreated lysate (HIV-1 virus [3]; 10^-5 M)",viral production by activated lymphocytes with lysates of infected treated macrophages (general statement) (HIV-1 virus [3]; lysate at day 14),"multiplication of the HIV-1 virus in the macrophages (HIV-1 virus [3]; whatever the concentration tested, 5.10^-6 M or 10^-5 M)"
"Cc1cn([C@H]2C[C@H](N=[N+]=[N-])[C@@H](CO)O2)c(=O)[nH]c1=O [AZT, 3'-azido 3'-deoxythymidine, reference compound]",0,0,0,1,active by themselves,block the proliferation of the HIV-1 virus in the macrophages,no viral production is obtained on the lymphocytes,there is no multiplication of the HIV-1 virus at the interior of the macrophage,–,–,–,–,–
"Cc1cn([C@H]2C[C@H](N=[N+]=[N-])[C@@H](COP(=O)(O)OC[C@H]3OC(O)[C@H](O)[C@@H](O)[C@@H]3O)O2)c(=O)[nH]c1=O (stereo partly shown) [compound 6715, 6-glucosyl 5' (3'-azido)-thymidinyl phosphate]",0,0,3,–,–,–,–,–,–,–,–,–,–
"Cc1cn([C@H]2CC[C@@H](CO)O2)c(=O)[nH]c1=O [ddT, 3'-deoxy-thymidine, reference compound]",–,78,87,101,–,–,–,–,block the proliferation of the HIV-1 virus in the macrophages,seems to be lower,comparable to the untreated lysate,make it possible to obtain a vital production by activated lymphocytes,"there is multiplication of the HIV-1 virus in the macrophages, but the escape of the virus seems to be blocked"
"CCCCCCCCCCCCCCCCOP(=O)(OCC1CCC(n2cc(C)c(=O)[nH]c2=O)O1)OCC1OC(O)C(O)C(O)C1O (stereo not shown) [compound 6650, 6-glucosyl hexadecyl 5'-(3'-deoxy) thymidinyl]",–,79,78,96,–,–,–,–,–,–,–,–,–

# — patent US5393744A, “Glucosyl phosphotriesters of thymidine” (Institut Pasteur, priority 1988, dated 1995)
